24 compounds from US11485736B2 (KSQ Therapeutics, Inc., priority 2018, dated 2022) can be followed below.

Where two headings read alike, the source gives them in different places.

A short description of data set [1]: ADME solubility determination at pH 2.0 and pH 7.4. To be noted: aqueous buffer, thermodynamic from solid, LC-MS/MS. The class given is physicochemical. The protocol: Certain Compounds of the Disclosure were assessed for ADME solubility at pH 2.0 and pH 7.4.
Stock solutions were prepared by adding each compound to DMSO at a concentration of 10 mM. Samples were prepared by adding 50 μL of each stock solution to separate vials. The vials were loaded onto a 96-well rack and dried. 500 μL of Phosphate Buffered Saline (PBS) pH 7.4 or PBS pH 2.0 were added into each vial. The vials were then shaken at 25° C. and 1,100 rpm for 24 hours.
After 24 hours, the vials were centrifuged at 3220 G and 25° C. for 30 minutes. The supernatant fluid was analyzed by LC-MS/MS against a standard of known concentration. The solubility of each sample was then calculated using the equation below:
[formula] where DF is the dilution factor.

Data set [2] can be described thus: Liver microsomal stability, rat liver microsomes. The class given is in vitro ADME. To be noted: 1 μM compound, NADPH, read-out: t1/2 (min) in RLM. As for the experimental part: (§1) Certain Compounds of the Disclosure were assessed for ADME metabolic stability in human liver microsomes (HLM) and rat liver microsomes (RLM).
(§2) Samples were prepared by adding 222.5 μL of a master solution (100 mM phosphate buffer and 1 mg/mL liver microsomes (HLM or RLM)) and 25 μL of a 10 mM NADPH solution to incubation plates, which were then warmed for 10 min. Each compound was separately dissolved in DMSO to prepare 10 mM stock solutions, which were then diluted to 100 μM with acetonitrile. A reaction was started by adding 2.5 μL of the 100 μM solution of each compound to separate incubation plates such that the final concentration of for each compound in each plate was 1 μM.
(§3) 25 μL aliquots of each sample were taken at 0.5, 5, 10, 15, 20 and 30 minutes, and the reaction was stopped by adding 5 volumes of cold acetonitrile with IS (100 nM alprazolam, 200 nM caffeine and 100 nM tolbutamide). The samples were then centrifuged at 3,220 G for 30 minutes, and 100 μL of the supernatant fluid was mixed with 100 μL of ultra-pure H2O.
(§4) The samples were then analyzed by LC-MS/MS. Peak areas were determined from extracted ion chromatograms. Slope values (k) were determined by linear regression of the natural logarithm of the remaining percentage of the compound vs. incubation time curve. […] The in vitro half-life (min) was converted into the in vitro intrinsic clearance (in vitro CLint, in μL/min/mg protein) using the following equation: […]

Data set [3] in a line: Liver microsomal stability, human liver microsomes. To be noted: 1 μM compound, NADPH, read-out: t1/2 (min) in HLM. In kind it is in vitro ADME. As for the experimental part:
as §1, §2, §3, §4
For orientation: Liver microsomes are a subcellular fraction often used to study metabolism.

Setting [4] is: PBS pH 2.0, shaken at 25° C. for 24 hours, read-out: Solubility at pH 2.0.
Setting [5] is: PBS pH 7.4, shaken at 25° C. for 24 hours, read-out: Solubility at pH 7.4.

As to `COc1ncnc(C2CC2)c1-c1ncc2cnn(Cc3ccc(-n4nc(C(F)(F)F)cc4C)cc3)c2n1` [Example 27], the solubility at 24 h in data set [1] (setting [4]) and in data set [1] (setting [5]) was less than 10 µM throughout. For the same compound, the half-life at 1 μM in data set [2] and in data set [3] was more than 25 min throughout.

Turning to `COc1ncnc(C2CC2)c1-c1ncc2c(OC)nn([C@@H](C)c3ccc(-c4nc(C(F)(F)F)c(Br)n4C)cc3)c2n1` [Example 188, (S)-1-(1-(4-(5-bromo-1-methyl-4-(trifluoromethyl)-1H-imidazol-2-yl)phenyl)ethyl)-6-(4-cyclopropyl-6-methoxypyrimidin-5-yl)-3-methoxy-1H-pyrazolo[3,4-d]pyrimidine], the solubility at 24 h in data set [1] (setting [4]) and in data set [1] (setting [5]) was less than 10 µM each time. In addition, the half-life at 1 μM in data set [2] and in data set [3] was more than 25 min in each case.

Turning to `COc1ncnc(C2CC2)c1-c1ncc2cnn(Cc3ccc(-n4nc(C(F)(F)F)cc4N(C)C)cc3)c2n1` [Example 121], the solubility at 24 h in data set [1] (setting [4]) and in data set [1] (setting [5]) was less than 10 µM in each case. In addition, the half-life at 1 μM in data set [2] and in data set [3] was less than 25 min each time.

On to `COc1ncnc(C2CC2)c1-c1ncc2nc(C)n(Cc3ccc(-c4nc(C(F)(F)F)cn4C)cc3)c2n1` [Example 206], for which the solubility at 24 h in data set [1] (setting [4]) is more than 10 µM; in data set [1] (setting [5]), less than 10 µM. For the same compound, the half-life at 1 μM was more than 25 min in data set [2] and less than 25 min in data set [3].

As to `CCn1cc(C(F)(F)F)nc1-c1ccc(Cn2ncc3cnc(-c4c(OC)ncnc4OC)nc32)cc1` [Example 87], the solubility at 24 h in data set [1] (setting [4]) and in data set [1] (setting [5]) was more than 10 µM in each case. The half-life at 1 μM in data set [2] and in data set [3] was more than 25 min in each case.

Consider `COc1ncnc(C2CC2)c1-c1ncc2c(OC)nn(Cc3ccc(-c4cn(C(C)C)c(C(F)(F)F)n4)cc3)c2n1` [Example 185], for which the solubility at 24 h in data set [1] (setting [4]) and in data set [1] (setting [5]) was less than 10 µM each time. The half-life at 1 μM in data set [2] and in data set [3] was more than 25 min in each case.

Turning to `COc1ncnc(C2CC2)c1-c1ncc2cnn(Cc3ccc(-n4nc(C(F)(F)F)cc4OC)nc3)c2n1` [Example 79], the solubility at 24 h in data set [1] (setting [4]) and in data set [1] (setting [5]) was less than 10 µM in each case. Also, the half-life at 1 μM in data set [2] and in data set [3] was more than 25 min in each case.

For the compound `CCn1cc(C(F)(F)F)nc1-c1ccc(Cn2nc(C#N)c3cnc(-c4c(OC)ncnc4C4CC4)nc32)cc1` [Example 172, 6-(4-cyclopropyl-6-methoxypyrimidin-5-yl)-1-(4-(1-ethyl-4-(trifluoromethyl)-1H-imidazol-2-yl)benzyl)-1H-pyrazolo[3,4-d]pyrimidine-3-carbonitrile], the solubility at 24 h in data set [1] (setting [4]) and in data set [1] (setting [5]) was less than 10 µM throughout. The values for the half-life at 1 μM in data set [2] and in data set [3] were less than 25 min and more than 25 min, respectively.

Take `COc1ncnc(C2CC2)c1-c1ncc2cnn(Cc3ccc(-c4nc(C(F)(F)F)cn4CC(C)F)cc3)c2n1` (stereo not drawn) [Example 142]: the figures for the solubility at 24 h in data set [1] (setting [4]) and in data set [1] (setting [5]) were more than 10 µM and less than 10 µM, respectively. Moreover, the figures for the half-life at 1 μM in data set [2] and in data set [3] were less than 25 min and more than 25 min, respectively.

In the case of `COc1ncnc(C2CC2)c1-c1ncc2cnn(Cc3ccc(-c4nc5c(F)cccc5n4C)cc3)c2n1` [Example 131], the results for the solubility at 24 h in data set [1] (setting [4]) and in data set [1] (setting [5]) were more than 10 µM and less than 10 µM, respectively. Further, the half-life at 1 μM in data set [2] and in data set [3] was more than 25 min in each case.

Take `COc1ncnc(C2CC2)c1-c1ncc2cnn(Cc3ccc(-c4nc(C(F)(F)F)nn4C(C)C)cc3)c2n1` [Example 58]: the solubility at 24 h in data set [1] (setting [4]) and in data set [1] (setting [5]) was less than 10 µM throughout. In addition, the half-life at 1 μM in data set [2] and in data set [3] was more than 25 min each time.

Consider `COc1ncnc(C2CC2)c1-c1ncc2cnn([C@H](C)c3ccc(-c4nc(C(F)(F)F)cn4C(C)C)cc3)c2n1` [Example 98], for which the solubility at 24 h in data set [1] (setting [4]) and in data set [1] (setting [5]) was more than 10 µM throughout. In addition, the values for the half-life at 1 μM in data set [2] and in data set [3] were less than 25 min and more than 25 min, respectively.

On to `COc1ncnc(C2CC2)c1-c1ncc2cnn(Cc3ccc(-c4nc(C(F)(F)F)c(Br)n4C)cc3)c2n1` [Example 163], for which the solubility at 24 h in data set [1] (setting [4]) and in data set [1] (setting [5]) was less than 10 µM throughout. Moreover, the half-life at 1 μM in data set [2] and in data set [3] was more than 25 min each time.

In the case of `COc1ncnc(C2CC2)c1-c1ncc2cnn(Cc3ccc(-n4nc(C(F)F)cc4N(C)C)cc3)c2n1` [Example 123], the solubility at 24 h in data set [1] (setting [4]) and in data set [1] (setting [5]) was less than 10 µM throughout. Moreover, the half-life at 1 μM in data set [2] and in data set [3] was less than 25 min in each case.

Regarding `COCCOc1ncnc(C)c1-c1ncc2cnn(Cc3ccc(-n4nc(C(F)(F)F)cc4C)cc3)c2n1` [Example 47], the solubility at 24 h in data set [1] (setting [4]) and in data set [1] (setting [5]) was more than 10 µM each time. Further, the half-life at 1 μM in data set [2] and in data set [3] was less than 25 min each time.

`CC(C)Oc1ncnc(C2CC2)c1-c1ncc2cnn(Cc3ccc(-c4nc(C(F)(F)F)cn4C)cc3)c2n1` [Example 40]: the solubility at 24 h is more than 10 µM in data set [1] (setting [4]) and less than 10 µM in data set [1] (setting [5]). In addition, the half-life at 1 μM in data set [2] and in data set [3] was less than 25 min throughout.

For the compound `COc1ncnc(C2CC2)c1-c1ncc2cnn(Cc3ccc(-c4nc(C(F)(F)F)c(OC)n4C(C)C)cc3)c2n1` [Example 166], the solubility at 24 h in data set [1] (setting [4]) and in data set [1] (setting [5]) was less than 10 µM in each case. Moreover, the half-life at 1 μM in data set [2] and in data set [3] was less than 25 min each time.

With `COc1ncnc(C2CC2)c1-c1nc(OC)c2cnn(Cc3ccc(-n4nc(C(F)(F)F)cc4C)cc3)c2n1` [Example 28], the solubility at 24 h in data set [1] (setting [4]) and in data set [1] (setting [5]) was less than 10 µM each time. The half-life at 1 μM in data set [2] and in data set [3] was more than 25 min in each case.

Regarding `CCn1cc(C(F)(F)F)nc1-c1ccc([C@@H](C)n2ncc3cnc(-c4c(OC)ncnc4OC)nc32)cc1` [Example 89], the solubility at 24 h in data set [1] (setting [4]) and in data set [1] (setting [5]) was more than 10 µM in each case. Further, the half-life at 1 μM in data set [2] and in data set [3] was more than 25 min each time.

In the case of `CSc1ncnc(C)c1-c1ncc2cnn(Cc3ccc(-n4nc(C(F)(F)F)cc4C)cc3)c2n1` [Example 46], the solubility at 24 h in data set [1] (setting [4]) and in data set [1] (setting [5]) was less than 10 µM throughout. Besides, the half-life at 1 μM in data set [2] and in data set [3] was less than 25 min throughout.

Turning to `COc1ncnc(C(C)C)c1-c1ncc2cnn(Cc3ccc(-n4nc(C(F)(F)F)cc4C)cc3)c2n1` [Example 115], the solubility at 24 h in data set [1] (setting [4]) and in data set [1] (setting [5]) was less than 10 µM in each case. Besides, the half-life at 1 μM in data set [2] and in data set [3] was less than 25 min throughout.

For the compound `CCn1cc(C(F)(F)F)nc1-c1ccc([C@H](C)n2ncc3cnc(-c4c(OC)ncnc4C4CCC4)nc32)cc1` (single isomer, unassigned) [Example 99], the results for the solubility at 24 h in data set [1] (setting [4]) and in data set [1] (setting [5]) were more than 10 µM and less than 10 µM, respectively. Further, the half-life at 1 μM in data set [2] and in data set [3] was less than 25 min throughout.

In the case of `COc1ncnc(C2CC2)c1-c1ncc2cnn(Cc3ccc(-n4nc(C(F)(F)F)cc4CO)cc3)c2n1` [Example 198, (1-(4-((6-(4-cyclopropyl-6-methoxypyrimidin-5-yl)-1H-pyrazolo[3,4-d]pyrimidin-1-yl)methyl)phenyl)-3-(trifluoromethyl)-1H-pyrazol-5-yl)methanol], the solubility at 24 h in data set [1] (setting [4]) and in data set [1] (setting [5]) was less than 10 µM throughout. Also, the half-life at 1 μM in data set [2] and in data set [3] was more than 25 min each time.

In the case of `COc1ncnc(C2CC2)c1-c1ncc2cnn(Cc3ccc(-c4nc(C(F)(F)F)nn4C)cc3)c2n1` [Example 56], the solubility at 24 h in data set [1] (phosphate buffered saline, PBS pH 2.0, shaken at 25° C. for 24 hours, read-out: Solubility at pH 2.0) is more than 10 µM; in data set [1] (phosphate buffered saline, PBS pH 7.4, shaken at 25° C. for 24 hours, read-out: Solubility at pH 7.4), less than 10 µM. Moreover, the half-life at 1 μM in data set [2] and in data set [3] was more than 25 min each time.

The solubility is the dissolved amount per volume that the medium holds.
